Test results reported in patent US20140186872A1, “BISACODYL AND ITS ANALOGUES AS DRUGS FOR USE IN THE TREATMENT OF CANCER” (CENTRE NATIONAL DE LA RECHERCHE SCIENTIFIQUE- CNRS, priority 2011, published 2014).
Where two headings read alike, the source gives them in different places. Blank lines part the entries; values can stand above or below the molecule they belong to.

Experiments:
[1] = system: proliferating TG1 glioblastoma stem cells; experiment: ATP-Glo (Cell Titer Glo) cell viability, dose/response, proliferating TG1 cells; format: cell-based, human; conditions: for effect on survival of proliferating TG1 cells: own culture medium
Description: The TG1 proliferating cells correspond to cells for which medium is renewed regularly, twice weekly.
The proliferating cells were put back in 1 mL of fresh NS34 medium, dissociated mechanically by pipetting up and down 100 times with a P1000 micropipette preset to 400 μl and counted with Trypan Blue, after dilution in fresh NS34 medium, to obtain a final suspension of 6×10^5 cells/mL.
(§1) 50 μl of solution containing cells was deposited per well in a 96-well plate (Greiner #655090).
(§2) The test compounds, in solution of 100% of DMSO were diluted in culture medium: in the absence of DMSO (medium 0% DMSO) or in the presence of 2% of DMSO (medium 2% DMSO) at concentrations of 200 μM, 100 μM, 80 μM, 60 μM, 40 μM, 20 μM, 10 μM and 2 μM. For all these dilutions the final concentration in DMSO was 2% (see Table 1 below; volumes shown make it possible to construct dose/response curves, in triplicate, for 1 compound on a 96-well plate—FIG. 1)
50 μL of solution of compound was added at the concentrations specified above to 50 μL of cells in the plate (FIG. 1) (Final concentration of compounds in contact with the cells: 100 μM, 50 μM, 40 μM, 30 μM, 20 μM, 10 μM, 5 μM, 1 μM (in 1% of final DMSO). Final concentration of positive control: 50 μM in 1% of final DMSO. Final concentration of negative control: 1% final DMSO). […]
(§3) The test of cell viability was carried out using the Cell Titer Glo kit (Promega #G7571). After thawing of the Cell Titer Glo reagent (1 Buffer vial+1 Substrate vial per plate) protected from the light, the contents of the Buffer vial were transferred to the Substrate vial. 100 μl of Cell Titer Glo reagent was deposited on the cells treated with the compounds.
(§4) The results, which were given for each well in strokes per second (sps), were converted to percentage cell survival relative to the control 1% of DMSO, which was fixed at 100%.
(§5) The EC50 was determined as the concentration that gives 50% of the response.
(§6) Glioblastoma (WHO grade IV glioma) stem cells (TG1, TG16 and OB1) were derived from tumor samples of 3 patients at Sainte Anne Hospital (Paris, France), as previously described (48) and expanded as neurosphere cultures. In continuously proliferating cultures, neurospheres were mechanically dissociated into a single-cell suspension twice a week with 90% renewal of their culture medium. Quiescent glioblastoma stem cells were obtained by non-renewal of the culture medium for 9-16 days following cell seeding. The non-proliferating state was assessed by decreased ability of the cells to incorporate EdU (5-ethynyl-2′-deoxyuridine) using the Click-iT™ EdU Flow Cytometry Assay Kit (Invitrogen, France) according to the manufacturer's instructions. […]
(§7) Confirmed hit compounds from the primary and secondary screens were purchased from Prestwick Chemical and dissolved in DMSO to obtain 10 mM concentrated stock solutions. Hit compound validation was obtained through dose-response curves on the viability of TG1 glioblastoma stem cells under the same experimental conditions (cell density, treatment duration) as described for the primary and secondary screens. Each compound was tested in triplicate in at least three independent experiments on proliferating and quiescent glioblastoma stem TG1 cells.
(§8) The EC50 value was determined for each compound by fitting the data points according to the following equation: […]
(§9) where y represents the expected response (expressed as a percentage of cell viability), x is the chemical compound concentration, Smax and Smin are the maximum and minimum viability responses recorded, respectively, and n is the Hill coefficient. Curve fitting was performed using the Microsoft Excel Solver component.

[2] = system: quiescent TG1 glioblastoma stem cells; experiment: ATP-Glo (Cell Titer Glo) cell viability, dose/response, quiescent TG1 cells; format: cell-based, human; conditions: for cytotoxicity to quiescent TG1 cells: 10 μM; for cytotoxicity to quiescent TG1 cells / EC50 / effect on survival of quiescent TG1 cells (words): 24 h; for EC50: Homo sapiens, quiescent TG1 cells, ATP-Glo, read-out: concentration leading to 50% of effect (EC50); for effect on survival of quiescent TG1 cells (words): own conditioned medium
Description: The TG1 cells were put into quiescence by keeping the cells in culture without changing the medium from 9 to 16 days. The state of quiescence was verified by non-incorporation of nucleotides into the DNA of the cells (see example 9).
The quiescent cells were put back in 1 mL of conditioned medium, dissociated mechanically by pipetting up and down 100 times with a P1000 micropipette preset to 400 μl and counted with Trypan Blue, after dilution in conditioned medium, to obtain a final suspension of 8.10^5 cells/mL.
as §1, §2
50 μL of solution of compound was added at the concentrations specified above to 50 μL of cells in the plate (FIG. 1) (Final concentration of compounds in contact with the cells: 100 μM, 50 μM, 40 μM, 30 μM, 20 μM, 10 μM, 5 μM, 1 μM (in 1% of final DMSO). Final concentration of positive control: 50 μM in 1% of final DMSO. Final concentration of negative control: 1% final DMSO).
The cells were incubated for 23 to 24 hours at 37° C. in an incubator in the presence of 5% CO2 (under humid atmosphere at 95% provided by a reservoir filled with distilled water).
as §3, §4, §5, §6, §7, §8, §9

[3] = system: human primary astrocytes (HA cells); experiment: ATP-Glo cell viability on human astrocytes; format: cell-based
Excerpt: Primary human astrocytes (HA cells) were expanded in AM Medium (both from ScienCell Research Laboratories, Carlsbad Calif.) according to the manufacturer's instructions.

[4] = Stability of the test compounds in the culture medium (HPLC); format: physicochemical; conditions: for half-life at 10 μM: 1% DMSO, 37° C., HPLC
Description: A mass m was weighed with an analytical balance and a volume V of DMSO was added.
The solution of the compound at 10 mM was diluted to 1/10, still in DMSO.
The latter solution was diluted to 1/100 in medium in order to obtain a final concentration of 10 μM and 1% of DMSO.
After homogenizing (2 min), 150 μl was taken and was mixed with 150 μl of acetonitrile to precipitate the proteins present in the medium, which corresponds to a dilution to ½.
The mixture was vortexed for 1 min and then centrifuged for 10 min at 15000 g.
The supernatant was again diluted to ½ with 1 volume of milliQ water and then injected in HPLC.
The same treatment was carried out at times 2 h, 4 h, 6 h and 24 h.
The solutions were analysed in HPLC using a Gilson chain equipped with a diode array detector and of an automatic injector with an injection loop of 20 μl.
10 μM solutions of Bisacodyl and DDPM were prepared in proliferating or quiescent glioblastoma stem cell culture medium in the presence of 1% DMSO. Following protein precipitation (with acetonitrile), samples were analyzed by HPLC after 0, 2, 4, 6 and 24 h of incubation at 37° C.

[5] = system: caspase 3/7 activity in proliferating and quiescent TG1 cells; experiment: Apo-ONE Homogeneous Caspase-3/7 Assay in TG1 cells; format: cell-based, human
Description: Proliferating (30 000 cells/well) and quiescent (40 000 cells/well) TG1 cells were suspended in freshly prepared culture medium (pH=7.3) or acidified freshly prepared culture medium (pH=6.4) and treated with increasing concentrations of the lead compounds for 24 hours. Following treatment, apoptosis was measured with the Apo-ONE Homogeneous Caspase-3/7 Assay from Promega according to the manufacturer's instructions. Staurosporine (Sigma, Aldrich) and culture medium were used as positive and negative controls, respectively.

[6] = system: quiescent TG1 glioblastoma stem cells; experiment: ATP-Glo (Cell Titer Glo) cell viability, dose/response, quiescent TG1 cells; format: cell-based, human; conditions: treated 24 h in freshly prepared non-conditioned medium, versus own medium
[7] = system: U-87 MG glioblastoma cell line; experiment: ATP-Glo cell viability on U-87 MG cells; conditions: for cytotoxic effect on U-87 MG cells: 24 h
Description: (§10) The cells were passed 2 or 3 days before the experiment. On that very day, the cells are detached with trypsin according to the above protocol, then centrifuged for 10 minutes at 800 rpm.
(§11) The supernatant was removed and the cells were resuspended in culture medium, then counted and finally diluted to give a final suspension of 10^6 cells/mL.
(§12) 7 mL of cellular suspension at 10^6 cells/mL was prepared for each test compound.
The glioblastoma U-87 MG cell line was purchased from ATCC and expanded in Eagle's Minimum Essential Medium (EMEM) (ATCC) supplemented with 10% fetal bovine serum (FBS) (Invitrogen, France) and 1% penicillin/streptomycin (Invitrogen, France).
The pH of the medium solution was then adjusted to values varying between 7.4 and 6.0 with 1M HCl or a sodium acetate buffer (0.1 M pH=4). The culture media were placed in a CO2 cell culture incubator settled to 5% CO2 and 37° C. for 1 hour. The pH was measured again and re-adjusted to the expected values if necessary and culture media were filter-sterilized (0.22 μm filter) prior to their use. The toxicity of DDPM (10 or 100 μM) on proliferating and quiescent TG1 cells was then assessed under the same conditions as those described in the previous section. pH dependency of lead compounds was also assessed for the glioblastoma U-87 MG cell line and on normal fetal neural stem cells and primary human astrocytes in their respective culture media (adjusted to pH 7.4 or 6.2) with HCl (1M) or a sodium acetate buffer (0.1 M pH=4).

[8] = system: human fetal neural stem cells (f-NSC cells); experiment: ATP-Glo cell viability on fetal neural stem cells; format: cell-based
[9] = system: HEK293 cells; experiment: ATP-Glo cell viability on HEK 293 cells
Description: as §10, §11, §12
Human Embryonic Kidney 293 cells (HEK 293 cells) were expanded in Minimum Essential Medium (MEM) with 2 mM L-Glutamine, 100 UI/ml-100 μg/ml Penicillin/Streptomycin and 10% FBS.

[10] = 100 μM, acidification with sodium acetate buffer, versus HCl

EC50 [2]: ~1000 nM
SMILES: Oc1ccc(C(c2ccc(O)cc2)c2ccccn2)cc1 [Compound 2, 4,4′-(Pyridin-2-ylmethylene)diphenol]
survival of proliferating TG1 cells ([1]; 10 μM, 24 h, acidic medium (HCl)): also decreased | effect on proliferating TG1 cells [1, 10]: more pronounced | survival of TG1 glioblastoma cancer stem cells (ATP level) ([1]; NS34 medium pH 7.35 or 6.2, 24 or 72 h, Example 13): decreases the survival | effect on survival of proliferating TG1 cells ([1]; 24 h): a little more marked | effect on survival of proliferating TG1 cells ([1]; 24 h, listed as DDPM): minor effect | cytotoxic activity on proliferating TG1 cells after media exchange ([1]; treated 24 h in conditioned quiescent cell medium, versus own medium): more pronounced cytotoxic activity | cytotoxicity to quiescent TG1 cells ([2]; pH values above 7): little or no effect | cytotoxicity to quiescent TG1 cells ([2]; slightly acidic conditions (HCl)): cytotoxic | effect on quiescent TG1 cells [2, 10]: more pronounced | effect on survival of quiescent TG1 cells (words) [2]: effect comparable to bisacodyl | effect on survival of quiescent TG1 cells (words) ([2]; listed as DDPM): high cytotoxicity | effect on ATP levels of human astrocytes ([3]; pH 7.4 versus 6.2, related to cell death): pH dependent reduction of ATP levels | change in concentration in the culture media (stability) ([4]; proliferating and quiescent culture medium, up to 24 h): No change | caspase 3/7 activity ([5]; pH 6.4, 24 h, proliferating and quiescent TG1 cells): stimulates caspase 3/7 activity in a dose-dependent manner | pro-apoptotic effect (caspase 3/7 activity) ([5]; physiological pH (pH 7.3), 24 h): not observed | effect on quiescent TG1 cells after media exchange [6]: significantly reduced | percentage of U-87 cell death ([7]; acidic pH adjusted with sodium acetate buffer, versus HCl): even higher | cytotoxic effect on U-87 MG cells ([7]; pH 6.2 set with 1M HCl, versus physiological pH): significantly higher | cytotoxic effect on U-87 MG cells ([7]; physiological pH): no cytotoxic effect

EC50 [2]: 1000 nM | half-life at 10 μM ([4]; quiescent glioblastoma stem cell culture medium (no cells), read-out: half-life in the medium of the quiescent cells (converted)): 4 h
SMILES: CC(=O)Oc1ccc(C(c2ccc(OC(C)=O)cc2)c2ccccn2)cc1 [Compound 1, Bisacodyl]
effect on survival of proliferating TG1 cells ([1]; 24 h): not on TG1 cells proliferating continuously | effect on survival of quiescent TG1 cells (words) ([2]; listed as Bisacodyl): only active on TG1 cells in quiescence | effect on survival of quiescent TG1 cells (words) ([2]; listed as bisacodyl): more selective effects | effect on survival / toxicity, f-NSC cells [8]: does not display any toxicity | cell survival of f-NSC cells ([8]; concentrations of compound up to 100 μM): over 90% | toxicity for HA cells [3]: does not display any toxicity | Emax ([3]; Homo sapiens, Astrocyte, not due to cell death, read-out: maximum effect on HA cells: reduction of ATP levels): 30% | survival of human astrocytes (HA) ([3]; concentrations above 10 μM): 60% | half-life at 10 μM ([4]; read-out: half-life in the medium of the proliferating cells (converted)): 2 h | survival of U-87 MG cells ([7]; concentrations between 10 and 100 μM): 90% | toxicity for HEK293 cells [9]: does not display any toxicity | survival of HEK293 cells ([9]; 10 μM): 100% | survival of HEK293 cells ([9]; 100 μM): 80%
